The test system of assay [1] is MBP-induced EAE in Lewis rats. As to the kind of experiment: Prevention of MBP-induced experimental allergic encephalomyelitis (EAE). Format: in vivo. The conditions noted are these: 100 mg/kg b.i.d. oral gavage, day 3 to day 16 post-inoculation. As for the experimental part:
Experimental allergic encephalomyelitis (EAE) induced by injection of guinea pig myelin basic protein (MBP) or MBP peptide fragments is reported to be a useful model for MS. See, for example, D. E. McFarlin et al., “Recurrent Experimental Allergic Encephalomyelitis in the Lewis Rat,” The Journal of Immnunology, 113(2): 712-715 (1974).
Female, Lewis rats of 8 weeks of age (180-250 g) were weighed and then given two intradermal injections (0.1 mL each) of 0.4 mg of M. tuberculin in 0.1 mL incomplete Freunds adjuvant and […] of myelin basic protein in 0.1 mL of saline into the base of the tail. Animals were weighed daily and given a clinical score beginning on Day 8, post inoculation, according to the following criteria:
2.5=Hind limb paralysis and front limb weakness
3.0=Hind and front limb paralysis
4.0=Moribund state or death
On day 3, post-inoculation animals were administered b.i.d either a test compound (100 mg/kg) or 1% methylcellulose vehicle by oral gavage up to and including day 16.

Assay [2] relates to rats injected with Aβ(25-35) and ibotenate into the hippocampus. As to the kind of experiment: Reduction of cognitive defects due to Aβ-peptide/ibotenate (Morris water maze). Format: in vivo, Male Sprague-Dawley rats. To be noted: 10 mg/kg oral gavage daily, Morris water maze 9-11 days after injection. On the procedure: The procedures employed in this example are similar to those described in Dornan et al., NeuroReport 5, 165-168 (1993). Male Sprague-Dawley rats (200-300 g) were weighed and given 10 mg/kg of α-(2-ethoxyphenyl)-N-tert-butylnitrone or 1% methylcellulose by oral gavage. One hour later, the rats were stereotaxically injected into the CA1 region of their hippocampus with 8 nmol of Aβ(25-35) and 6 nmol of ibotenate per side (coordinates from bregma −3.6=AP, ±2.2=ML, −3.0=DV from the top of the dura). Controls were injected with PBS (pH 7.4). All injections were 1.5 μL in volume. The animals receiving PBS were orally dosed with 1% methylcellulose. Oral dosing continued daily until the end of the Morris water maze testing.
Nine to eleven days following injection, animals were tested in a Morris water maze task to measure spatial memory and learning. Animals were given three days of testing with four to six trials per day. The last trial on the fourth day was a probe trial where the platform was removed and time in quadrant and annulae crossings were determined. Following the behavioral testing, animals were perfused with 10% neutral formalin. The brain was post-fixed for 1 week in 10% formalin and then sliced for histological evaluation. Image analysis of cresyl violet staining was used to compare the neuronal loss (lesion volume) in the hippocampus between groups.

The next assay concerns MRL/MpJ Fas^lpr mice. As to the kind of experiment: Reduction of cognitive deficits in autoimmune mice (T-maze task). The conditions noted are these: 100 mg/kg oral gavage daily for 8 to 9 weeks, Fas^lpr mice tested at 4 months of age. Format: in vivo. As for the experimental part:
MRL/MpJfas^lpr (“mutant mice” or “Fas^lpr”) strains of mice have been described as useful models of Lupus due to their autoimmune lymphoproliferative pathology. In particular, the mutant mice show a cognitive deficit at approximately four months of age, which is not observed at two months of age. See, for example, Forster et al., 1988, Behav. Neural Biology, 49, 139-151.
In the experiment, male MRL/MpJ Fas^lPr and normal MRL/MpJ++ mice of 8 weeks of age were weighed and administered 100 mg/kg of the test compound (either α-(2-ethoxyphenyl)-N-tert-butylnitrone or α-(4-ethoxyphenyl)-N-cyclohexylnitrone) or 1% methylcellulose vehicle by oral gavage daily for 8 to 9 weeks. At 4 months of age, the mice were tested for avoidance, discrimination, session criteria and acquisition in a one day T-maze task with a maximum of 25 trials. Criteria was met with four of five trials correct with the last two correct trials being consecutive in avoidance and discrimination.

On to `CCOc1cc(C=[N+]([O-])C(C)(C)C)ccc1OC` [Example 3, α-(3-Ethoxy-4-methoxyphenyl)-N-tert-butylnitrone], for which the “CNS inflammatory deficit in acute EAE animals (clinical score)” value (“CNS inflammatory deficit” for short) in assay [1] was “reduced the CNS inflammatory deficit”.
Regarding `CCOc1ccc(C=[N+]([O-])C(C)(C)C)cc1` [Example 4, α-(4-Ethoxyphenyl)-N-tert-butylnitrone], in assay [1], the “CNS inflammatory deficit” value is “did not significantly reduce the CNS inflammatory deficit”.
`COc1cc(C=[N+]([O-])C(C)(C)C)ccc1OCc1ccccc1` [Example 5, α-(4-Benzyloxy-3-methoxyphenyl)-N-tert-butylnitrone]: the “CNS inflammatory deficit” value in assay [1] is given as “did not significantly reduce the CNS inflammatory deficit”.
As for `CCOc1ccccc1C=[N+]([O-])C(C)(C)C` [Example 7, α-(2-Ethoxyphenyl)-N-tert-butylnitrone], the “CNS inflammatory deficit” value in assay [1] is recorded as “did not significantly reduce the CNS inflammatory deficit”. The “Aβ peptide/ibotenate-induced learning deficit” value in assay [2] is listed as “reduced the Aβ peptide/ibotenate-induced learning deficit”. For the same compound, in the assay with MRL/MpJ Fas^lpr mice, the “acquisition in T-maze task” value is “reduced acquisition values” and the “avoidance in T-maze task” value is recorded as “acquired avoidance skills earlier than untreated mutant mice”.
For the compound `CCCC[N+]([O-])=Cc1ccc(OCC)cc1` [Example 10, α-(4-ethoxyphenyl)-N-n-butylnitrone], the “CNS inflammatory deficit” value in assay [1] is listed as “did not significantly reduce the CNS inflammatory deficit”.
Turning to `CCOc1ccc(C=[N+]([O-])C2CCCCC2)cc1` [Example 11, α-(4-Ethoxyphenyl)-N-cyclohexylnitrone], in assay [1], the “CNS inflammatory deficit” value is reported as “reduced the CNS inflammatory deficit”. Further, in the assay with MRL/MpJ Fas^lpr mice, the “acquisition in T-maze task” value is given as “reduced acquisition values” and the “avoidance in T-maze task” value was “acquired avoidance skills earlier than untreated mutant mice”.
For the compound `CCOc1ccc(C=[N+]([O-])C2CCCCC2)cc1OC` [Example 15, α-(4-Ethoxy-3-methoxyphenyl)-N-cyclohexylnitrone], the “CNS inflammatory deficit” value in assay [1] was “did not significantly reduce the CNS inflammatory deficit”.
Consider `CCOc1cc(C=[N+]([O-])C(C)C)ccc1OC` [Example 17, α-(3-Ethoxy-4-methoxyphenyl)-N-isopropyinitrone], for which the “CNS inflammatory deficit” value in assay [1] is reported as “reduced the CNS inflammatory deficit”.
For `CCCCCCOc1ccc(C=[N+]([O-])C2CCCCC2)cc1OCC` [Example 22, α-(3-Ethoxy-4-hexyloxyphenyl)-N-cyclohexylnitrone], the “CNS inflammatory deficit” value in assay [1] is listed as “reduced the CNS inflammatory deficit”.
Still for that read-out and setting: then `CCCCCCCCOc1ccc(C=[N+]([O-])C(C)(C)C)c(F)c1` [Example 29, α-(2-Fluoro-4-octyloxyphenyl)-N-tert-butylnitrone], with “did not significantly reduce the CNS inflammatory deficit”; and `CC(C)(C)[N+]([O-])=Cc1ccc(OCc2ccccc2)cc1` [Example 41, α-(4-Benzyloxyphenyl)-N-tert-butylnitrone], with “reduced the CNS inflammatory deficit”.
For `[O-][N+](=Cc1ccc(OCc2ccccc2)cc1)C1CCCC1` [Example 42, α-(4-Benzyloxyphenyl)-N-cyclopentylnitrone], the “CNS inflammatory deficit” value in assay [1] is on record as “reduced the CNS inflammatory deficit”.
For `CCOc1cc(C=[N+]([O-])C(C)(C)CC(C)(C)C)ccc1OC` [Example 45, α-(3-Ethoxy-4-methoxyphenyl)-N-tert-octylnitrone], the “CNS inflammatory deficit” value in assay [1] was “reduced the CNS inflammatory deficit”.

The record behind these values is US6433008B1, “α-aryl-N-alkylnitrones and pharmaceutical compositions containing the same” (Centaur Pharmaceuticals, Inc., priority 1997, dated 2002).
